Tests used:
Assay type in all cases: in vivo
[1] = tested on: Italian ryegrass (Lolium mutiflorum); experiment: Test C postemergence, visual plant response rating
Summary of the method: (§1)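 Seeds sown in a loam–sand blend got a directed preemergence soil spray; postemergence plants (2–10 cm, one- to two-leaf stage) were sprayed with compound in a non-phytotoxic solvent plus surfactant. Injury was scored visually against untreated controls after about 10 d in a greenhouse on a 0–100 scale (100 = complete control).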

[2] = tested on: pigweed (Amaranthus retroflexus); experiment: Test C postemergence, visual plant response rating
Summary of the method: as §1

[3] = tested on: galium (catchweed bedstraw, Galium aparine); experiment: Test C postemergence, visual plant response rating
Summary of the method: as §1

[4] = tested on: blackgrass (Alopecurus myosuroides); experiment: Test C postemergence, visual plant response rating
Summary of the method: as §1

[5] = tested on: foxtail, giant (giant foxtail, Setaria faberi); experiment: Test C postemergence, visual plant response rating
Summary of the method: as §1

kochia (Bassia scoparia) [6] = experiment: Test C postemergence, visual plant response rating
Summary of the method: as §1

corn (Zea mays) = experiment: Test C postemergence, visual plant response rating
Summary of the method: as §1

[7] = tested on: wheat (Triticum aestivum); experiment: Test C postemergence, visual plant response rating
Summary of the method: as §1

[8] = tested on: ragweed (common ragweed, Ambrosia artemisiifolia); experiment: Test C postemergence, visual plant response rating
Summary of the method: as §1

[9] = tested on: barnyardgrass (Echinochloa crus-galli); experiment: Test C postemergence, visual plant response rating
Summary of the method: as §1

[10] = tested on: Italian ryegrass (Lolium mutiflorum); experiment: Test C preemergence, visual plant response rating
Summary of the method: as §1

[11] = tested on: pigweed (Amaranthus retroflexus); experiment: Test C preemergence, visual plant response rating
Summary of the method: as §1

[12] = tested on: foxtail, giant (giant foxtail, Setaria faberi); experiment: Test C preemergence, visual plant response rating
Summary of the method: as §1

kochia (Bassia scoparia) [13] = experiment: Test C preemergence, visual plant response rating
Summary of the method: as §1

[14] = tested on: ragweed (common ragweed, Ambrosia artemisiifolia); experiment: Test C preemergence, visual plant response rating
Summary of the method: as §1

[15] = tested on: barnyardgrass (Echinochloa crus-galli); experiment: Test C preemergence, visual plant response rating
Summary of the method: as §1

[16] = tested on: duck salad (Heteranthera limosa); experiment: Test D flooded paddy test, visual plant response rating; details: 250 g ai/ha, scale 0 to 100 (0 no effect, 100 complete control), 13 to 15 d
Summary of the method: (§2)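 Greenhouse paddy assay scored on a 0–100 visual scale after 13 to 15 d, where 100 means complete control and a dash marks no result; dosing was into 3 cm floodwater over 2-leaf plants.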

rice (Oryza sativa) = experiment: as above; details: 250 g ai/ha, scale 0 to 100 (0 no effect, 100 complete control), 13 to 15 d
Summary of the method: as §2

[17] = tested on: sedge umbrella (small-flower umbrella sedge, Cyperus difformis); experiment: as above; details: 250 g ai/ha, scale 0 to 100 (0 no effect, 100 complete control), 13 to 15 d
Summary of the method: as §2

[18] = tested on: barnyardgrass (Echinochloa crus-galli); experiment: as above; details: 250 g ai/ha, scale 0 to 100 (0 no effect, 100 complete control), 13 to 15 d
Summary of the method: as §2

[19] = Test C, postemergence, 125 g ai/ha
[20] = Test C, 31 g ai/ha, 0 is no effect, 100 is complete control
[21] = Test C, 125 g ai/ha, 0 is no effect, 100 is complete control

| Compound | Ryegrass, Italian plant response rating (0 to 100 scale) ([1]; Postemergence, 31 g ai/ha) | Ryegrass, Italian plant response rating (0 to 100 scale) [1, 19] | Pigweed plant response rating (0 to 100 scale) ([2]; Postemergence, 31 g ai/ha) | Pigweed plant response rating (0 to 100 scale) [2, 19] | Galium plant response rating (0 to 100 scale) ([3]; Postemergence, 31 g ai/ha) | Galium plant response rating (0 to 100 scale) [3, 19] | Blackgrass plant response rating (0 to 100 scale) ([4]; Postemergence, 31 g ai/ha) | Blackgrass plant response rating (0 to 100 scale) [4, 19] | Foxtail, Giant plant response rating (0 to 100 scale) ([5]; Postemergence, 31 g ai/ha) | Foxtail, Giant plant response rating (0 to 100 scale) [5, 19] | Kochia plant response rating (0 to 100 scale) (kochia (Bassia scoparia) [6]; Postemergence, 31 g ai/ha) | Kochia plant response rating (0 to 100 scale) (kochia (Bassia scoparia) [6]; [19]) | Corn plant response rating (0 to 100 scale) (corn (Zea mays); Postemergence, 31 g ai/ha) | Corn plant response rating (0 to 100 scale) (corn (Zea mays); [19]) | Wheat plant response rating (0 to 100 scale) ([7]; Postemergence, 31 g ai/ha) | Wheat plant response rating (0 to 100 scale) [7, 19] | Ragweed plant response rating (0 to 100 scale) ([8]; Postemergence, 31 g ai/ha) | Ragweed plant response rating (0 to 100 scale) [8, 19] | Barnyardgrass plant response rating (0 to 100 scale) ([9]; Postemergence, 31 g ai/ha) | Barnyardgrass plant response rating (0 to 100 scale) [9, 19] | further results |
| --- | --- | --- | --- | --- | --- | --- | --- | --- | --- | --- | --- | --- | --- | --- | --- | --- | --- | --- | --- | --- | --- |
| C#CCON=C(c1cccc(OC)c1)c1c(O)c(C)nn(C)c1=O [Compound 203] | 30 | 30 | 10 | 20 | 30 | 30 | 0 | 0 | 0 | 30 | 20 | 50 | 0 | 0 | 0 | 0 | 0 | 10 | 0 | 20 | Ryegrass, Italian plant response rating (0 to 100 scale) [10, 20]: 0; Ryegrass, Italian plant response rating (0 to 100 scale) [10, 21]: 0; Pigweed plant response rating (0 to 100 scale) [11, 20]: 0; Pigweed plant response rating (0 to 100 scale) [11, 21]: 0; Foxtail, Giant plant response rating (0 to 100 scale) [12, 20]: 0; Foxtail, Giant plant response rating (0 to 100 scale) [12, 21]: 10; Kochia plant response rating (0 to 100 scale) (kochia (Bassia scoparia) [13]; [20]): 0; Kochia plant response rating (0 to 100 scale) (kochia (Bassia scoparia) [13]; [21]): 0; Ragweed plant response rating (0 to 100 scale) [14, 20]: 0; Ragweed plant response rating (0 to 100 scale) [14, 21]: 0; Barnyardgrass plant response rating (0 to 100 scale) [15, 20]: 0; Barnyardgrass plant response rating (0 to 100 scale) [15, 21]: 0; Plant response rating, Ducksalad (Flood) [16]: 0; Plant response rating, Rice (Flood) (rice (Oryza sativa)): 0; Plant response rating, Sedge, Umbrella (Flood) [17]: 0; Plant response rating, Barnyardgrass (Flood) [18]: 0 |
| CO/N=C(\c1c(O)c(Cl)nn(C)c1=O)c1ccc(F)c2ccccc12 [Compound 208] | 30 | 80 | 30 | 40 | 90 | 100 | 0 | 30 | 20 | 60 | 50 | 70 | 0 | 10 | 0 | 0 | 100 | 100 | 30 | 60 | Ryegrass, Italian plant response rating (0 to 100 scale) [10, 20]: 10; Ryegrass, Italian plant response rating (0 to 100 scale) [10, 21]: 70; Pigweed plant response rating (0 to 100 scale) [11, 20]: 40; Pigweed plant response rating (0 to 100 scale) [11, 21]: 100; Foxtail, Giant plant response rating (0 to 100 scale) [12, 20]: 50; Foxtail, Giant plant response rating (0 to 100 scale) [12, 21]: 90; Kochia plant response rating (0 to 100 scale) (kochia (Bassia scoparia) [13]; [20]): 0; Kochia plant response rating (0 to 100 scale) (kochia (Bassia scoparia) [13]; [21]): 20; Ragweed plant response rating (0 to 100 scale) [14, 20]: 60; Ragweed plant response rating (0 to 100 scale) [14, 21]: 100; Barnyardgrass plant response rating (0 to 100 scale) [15, 20]: 0; Barnyardgrass plant response rating (0 to 100 scale) [15, 21]: 80; Plant response rating, Ducksalad (Flood) [16]: 0; Plant response rating, Rice (Flood) (rice (Oryza sativa)): 0; Plant response rating, Sedge, Umbrella (Flood) [17]: 0; Plant response rating, Barnyardgrass (Flood) [18]: 0 |
| C#CCO/N=C(/c1ccc(F)c(Br)c1)c1c(O)c(C)nn(C)c1=O [Compound 163] | 50 | 90 | 40 | 70 | 70 | 90 | 20 | 60 | 20 | 70 | 30 | 50 | 0 | 30 | 60 | 80 | 30 | 60 | 20 | 50 | Ryegrass, Italian plant response rating (0 to 100 scale) ([10]; 125 g ai/ha): 100; Ryegrass, Italian plant response rating (0 to 100 scale) [10, 20]: 70; Pigweed plant response rating (0 to 100 scale) ([11]; 125 g ai/ha): 50; Pigweed plant response rating (0 to 100 scale) [11, 20]: 30; Foxtail, Giant plant response rating (0 to 100 scale) ([12]; 125 g ai/ha): 50; Foxtail, Giant plant response rating (0 to 100 scale) [12, 20]: 10; Kochia plant response rating (0 to 100 scale) (kochia (Bassia scoparia) [13]; 125 g ai/ha): 50; Kochia plant response rating (0 to 100 scale) (kochia (Bassia scoparia) [13]; [20]): 0; Ragweed plant response rating (0 to 100 scale) ([14]; 125 g ai/ha): 0; Ragweed plant response rating (0 to 100 scale) [14, 20]: 0; Barnyardgrass plant response rating (0 to 100 scale) ([15]; 125 g ai/ha): 30; Barnyardgrass plant response rating (0 to 100 scale) [15, 20]: 0; Plant response rating, Ducksalad (Flood) [16]: 0; Plant response rating, Rice (Flood) (rice (Oryza sativa)): 0; Plant response rating, Sedge, Umbrella (Flood) [17]: 0; Plant response rating, Barnyardgrass (Flood) [18]: 0 |
